# How the values were obtained:
# Assay type in all cases: functional
# [1] = system: BT-549; assay: Cytotoxicity against human BT549 cells assessed as cell growth at 0.01 uM incubated for 48 hrs by sulforhodamine B assay relative to control; conditions: BT-549, 48 h, read-out: Activity
# [2] = system: MDA-MB-435; assay: Cytotoxicity against human MDA-MB-435 cells assessed as cell growth at 10 uM incubated for 48 hrs by sulforhodamine B assay relative to control; conditions: MDA-MB-435, 48 h, read-out: Activity
# [3] = system: UO-31; assay: Cytotoxicity against human UO31 cells assessed as cell growth at 0.01 uM incubated for 48 hrs by sulforhodamine B assay relative to control; conditions: UO-31, 48 h, read-out: Activity
# [4] = system: MDA-MB-231; assay: Cytotoxicity against human MDA-MB-231 cells assessed as cell growth at 0.01 uM incubated for 48 hrs by sulforhodamine B assay relative to control; conditions: MDA-MB-231, 48 h, read-out: Activity
# [5] = system: MCF7; assay: Cytotoxicity against human MCF7 cells assessed as cell growth at 100 uM incubated for 48 hrs by sulforhodamine B assay relative to control; conditions: MCF7, 48 h, read-out: Activity
# [6] = system: ACHN; assay: Cytotoxicity against human ACHN cells assessed as cell growth at 1 uM incubated for 48 hrs by sulforhodamine B assay relative to control; conditions: read-out: Activity
# [7] = system: HCT-116; assay: Cytotoxicity against human HCT116 cells assessed as cell growth at 0.01 uM incubated for 48 hrs by sulforhodamine B assay relative to control; conditions: HCT-116, 48 h, read-out: Activity
# [8] = system: SK-MEL-28; assay: Cytotoxicity against human SK-MEL-28 cells assessed as cell growth at 100 uM incubated for 48 hrs by sulforhodamine B assay relative to control; conditions: SK-MEL-28, 48 h, read-out: Activity
# [9] = system: SF-295; assay: Cytotoxicity against human SF295 cells assessed as cell growth at 1 uM incubated for 48 hrs by sulforhodamine B assay relative to control; conditions: SF-295, 48 h, read-out: Activity
# [10] = system: SK-MEL-2; assay: Cytotoxicity against human SK-MEL-2 cells assessed as cell growth at 0.1 uM incubated for 48 hrs by sulforhodamine B assay relative to control; conditions: SK-MEL-2, 48 h, read-out: Activity
# [11] = system: SF-268; assay: Cytotoxicity against human SF268 cells assessed as cell growth at 1 uM incubated for 48 hrs by sulforhodamine B assay relative to control; conditions: SF-268, 48 h, read-out: Activity
# [12] = system: U-251; assay: Cytotoxicity against human U251 cells assessed as cell growth at 100 uM incubated for 48 hrs by sulforhodamine B assay relative to control; conditions: U-251, 48 h, read-out: Activity
# [13] = system: LOX IMVI; assay: Cytotoxicity against human LOXIMVI cells assessed as cell growth at 0.1 uM incubated for 48 hrs by sulforhodamine B assay relative to control; conditions: read-out: Activity
# [14] = system: LOX IMVI; assay: Cytotoxicity against human LOXIMVI cells assessed as cell growth at 1 uM incubated for 48 hrs by sulforhodamine B assay relative to control; conditions: read-out: Activity
# [15] = system: NCI-H23; assay: Cytotoxicity against human NCI-H23 cells assessed as cell growth at 0.1 uM incubated for 48 hrs by sulforhodamine B assay relative to control; conditions: NCI-H23, 48 h, read-out: Activity
# [16] = system: HOP-92; assay: Cytotoxicity against human HOP92 cells assessed as cell growth at 10 uM incubated for 48 hrs by sulforhodamine B assay relative to control; conditions: HOP-92, 48 h, read-out: Activity
# [17] = system: MDA-MB-468; assay: Cytotoxicity against human MDA-MB-468 cells assessed as cell growth at 1 uM incubated for 48 hrs by sulforhodamine B assay relative to control; conditions: MDA-MB-468, 48 h, read-out: Activity
# [18] = system: HOP-62; assay: Cytotoxicity against human HOP62 cells assessed as cell growth at 100 uM incubated for 48 hrs by sulforhodamine B assay relative to control; conditions: HOP-62, 48 h, read-out: Activity
# [19] = system: CCRF-CEM; assay: Cytotoxicity against human CCRF-CEM cells assessed as cell growth at 0.01 uM incubated for 48 hrs by sulforhodamine B assay relative to control; conditions: read-out: Activity
# [20] = system: HCC 2998; assay: Cytotoxicity against human HCC2998 cells incubated for 48 hrs by sulforhodamine B assay; conditions: HCC 2998, 48 h
# [21] = system: T47D; assay: Cytotoxicity against human T47D cells assessed as cell growth at 100 uM incubated for 48 hrs by sulforhodamine B assay relative to control; conditions: read-out: Activity
# [22] = system: A549; assay: Cytotoxicity against human A549/ATCC cells assessed as cell growth at 10 uM incubated for 48 hrs by sulforhodamine B assay relative to control; conditions: A549, 48 h, read-out: Activity
# [23] = system: DU-145; assay: Cytotoxicity against human DU145 cells assessed as cell growth at 10 uM incubated for 48 hrs by sulforhodamine B assay relative to control; conditions: DU-145, 48 h, read-out: Activity
# [24] = system: COLO 205; assay: Cytotoxicity against human COLO205 cells assessed as cell growth at 1 uM incubated for 48 hrs by sulforhodamine B assay relative to control; conditions: COLO 205, 48 h, read-out: Activity
# [25] = system: SK-OV-3; assay: Cytotoxicity against human SKOV3 cells assessed as cell growth at 1 uM incubated for 48 hrs by sulforhodamine B assay relative to control; conditions: SK-OV-3, 48 h, read-out: Activity
# [26] = system: RPMI-8226; assay: Cytotoxicity against human RPMI8226 cells assessed as cell growth at 100 uM incubated for 48 hrs by sulforhodamine B assay relative to control; conditions: RPMI-8226, 48 h, read-out: Activity
# [27] = system: SW-620; assay: Cytotoxicity against human SW620 cells assessed as cell growth at 1 uM incubated for 48 hrs by sulforhodamine B assay relative to control; conditions: SW-620, 48 h, read-out: Activity
# [28] = system: OVCAR-5; assay: Cytotoxicity against human OVCAR5 cells assessed as cell growth at 100 uM incubated for 48 hrs by sulforhodamine B assay relative to control; conditions: OVCAR-5, 48 h, read-out: Activity
# [29] = system: OVCAR-5; assay: Cytotoxicity against human OVCAR5 cells assessed as cell growth at 0.01 uM incubated for 48 hrs by sulforhodamine B assay relative to control; conditions: OVCAR-5, 48 h, read-out: Activity
# [30] = system: HL-60(TB); assay: Cytotoxicity against human HL-60(TB) cells assessed as cell growth at 0.1 uM incubated for 48 hrs by sulforhodamine B assay relative to control; conditions: HL-60, 48 h, read-out: Activity
# [31] = system: M14; assay: Cytotoxicity against human M14 cells assessed as cell growth at 0.1 uM incubated for 48 hrs by sulforhodamine B assay relative to control; conditions: M14, 48 h, read-out: Activity
# [32] = system: SNB-19; assay: Cytotoxicity against human SNB19 cells assessed as cell growth at 100 uM incubated for 48 hrs by sulforhodamine B assay relative to control; conditions: SNB-19, 48 h, read-out: Activity
# [33] = system: MCF7; assay: Cytotoxicity against human MCF7 cells assessed as cell growth at 0.01 uM incubated for 48 hrs by sulforhodamine B assay relative to control; conditions: MCF7, 48 h, read-out: Activity
smiles,measurement,setting,value
COc1ccc(-c2nocc2-c2cc(OC)c(OC)c(OC)c2)cc1,growth at 0.01 µM,[1],86%
same,growth at 10 µM,[2],-29%
same,growth at 0.01 µM,[3],90%
same,growth at 0.01 µM,[4],98%
same,growth at 100 µM,[5],1%
same,growth at 1 µM,[6],52%
same,growth at 0.01 µM,[7],92%
same,growth at 100 µM,[8],-5%
same,growth at 1 µM,[9],7%
same,growth at 0.1 µM,[10],39%
same,growth at 1 µM,[11],45%
same,growth at 100 µM,[12],-4%
same,growth at 0.1 µM,[13],55%
same,growth at 1 µM,[14],43%
same,growth at 0.1 µM,[15],67%
same,growth at 10 µM,[16],49%
same,growth at 1 µM,[17],3%
same,growth at 100 µM,[18],10%
same,growth at 0.01 µM,[19],111%
same,GI50,[20]; read-out: GI50,0.347 µM
same,CC50,[20]; read-out: LC50 (the source's name),> 100 µM
same,TGI,[20]; read-out: TGI,22.2 µM
same,GI50,[20]; read-out: pGI50 (converted),0.347 µM
same,CC50,[20]; read-out: pLC50 (the source's name) (converted),> 100 µM
same,TGI,[20]; read-out: pTGI (converted),22.4 µM
same,growth at 100 µM,[21],-4%
same,growth at 10 µM,[22],29%
same,growth at 10 µM,[23],11%
same,growth at 1 µM,[24],11%
same,growth at 1 µM,[25],38%
same,growth at 100 µM,[26],-17%
same,growth at 1 µM,[27],21%
same,growth at 100 µM,[28],21%
same,growth at 0.01 µM,[29],89%
same,growth at 0.1 µM,[30],25%
same,growth at 0.1 µM,[31],41%
same,growth at 100 µM,[32],8%
same,growth at 0.01 µM,[33],86%

# From ChEMBL document CHEMBL4145521, “Regioselective synthesis of 3,4-diaryl-5-unsubstituted isoxazoles, analogues of natural cytostatic combretastatin A4” (Eur J Med Chem, 2018)
